From patent publication US20120214822A1 (ASTRAZENECA AB, priority 2007, published 2012)
Structures can show the parent of a compound that is named as a salt.

Molecular target: human active recombinant p38α-6His tagged (Homo sapiens, UniProt Q16539)
Assay: P38 Alpha Enzyme Assay (AlphaScreen, biotinylated-ATF2 substrate);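 note: 0.5 nM final p38α, reaction started with ATP and run 45 min at 37 °C, phospho-ATF2 read by antibody-based AlphaScreen, background wells quenched with EDTA before ATP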
Assay type: biochemical
Details: p38 alpha enzyme inhibition; means of replicate determinations; 4 h pre-incubation at 37° C.; SD of assay 0.2-0.3 log units

Sequence of human active recombinant p38α-6His tagged (Q16539 whole entry): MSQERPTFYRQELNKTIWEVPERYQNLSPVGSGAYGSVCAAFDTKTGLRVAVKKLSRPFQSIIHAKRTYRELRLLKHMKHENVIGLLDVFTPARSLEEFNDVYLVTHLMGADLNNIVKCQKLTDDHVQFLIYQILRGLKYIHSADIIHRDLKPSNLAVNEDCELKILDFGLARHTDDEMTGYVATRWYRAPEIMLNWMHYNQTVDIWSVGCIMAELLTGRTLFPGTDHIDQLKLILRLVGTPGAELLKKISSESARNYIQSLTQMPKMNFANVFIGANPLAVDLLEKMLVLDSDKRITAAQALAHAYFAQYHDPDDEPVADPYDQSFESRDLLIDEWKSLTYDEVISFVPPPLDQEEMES

Compound	pIC50
Cc1ccc(C(=O)NC2CC2)cc1-n1ccnc(NC(C)(C)c2ccccc2OCCNCCO)c1=O [Example 211, N-Cyclopropyl-3-[3-[[1-[2-[2-[(2-hydroxyethyl)amino]ethoxy]phenyl]-1-methylethyl]amino]-2-oxo-1(2H)-pyrazinyl]-4-methyl-benzamide]	9.6
Cc1c(F)cc(C(=O)NC2CC2)cc1-n1ccnc(NC2(c3ccccc3OCCNC[C@H](C)O)CC2)c1=O [Example 263, N-Cyclopropyl-3-fluoro-5-[3-[[1-[2-[2-[[(2S)-2-hydroxypropyl]amino]ethoxy]phenyl]cyclopropyl]amino]-2-oxo-1(2H)-pyrazinyl]-4-methyl-benzamide]	10.3
Cc1ccc(C(=O)NC2CC2)cc1-n1ccnc(N[C@@H](c2ccccc2)C2CCNCC2)c1=O [Example 101, N-Cyclopropyl-4-methyl-3-[2-oxo-3-[[(R)-phenyl-4-piperidinylmethyl]amino]-1(2H)-pyrazinyl]-benzamide, trifluoroacetate]	7.4
CCc1ccc(C(=O)NC2CC2)cc1-n1ccnc(NC(C)(C)c2ccccc2OCCNC)c1=O [Example 288, N-Cyclopropyl-4-ethyl-3-{3-[(1-methyl-1-{2-[2-(methylamino)ethoxy]phenyl}ethyl)amino]-2-oxopyrazin-1(2H)-yl}benzamide]	8.4
Cc1ccc(C(=O)NC2CC2)cc1-n1ccnc(NC(C)(C)c2ccccc2OC[C@H](N)CO)c1=O [Example 305, 3-[3-{[1-(2-{[(2R)-2-Amino-3-hydroxypropyl]oxy}phenyl)-1-methylethyl]amino}-2-oxopyrazin-1(2H)-yl]-N-cyclopropyl-4-methylbenzamide]	9.9
Cc1ccc(C(=O)NC2CC2)cc1-n1ccnc(NCCCc2ccccc2)c1=O [Example 36, N-Cyclopropyl-4-methyl-3-[2-oxo-3-[(3-phenylpropyl)amino]-1(2H)-pyrazinyl]-benzamide]	6.8
Cc1ccc(C(=O)NC2CC2)cc1-n1ccnc(NCC2CCOCC2)c1=O [Example 90, N-Cyclopropyl-4-methyl-3-[2-oxo-3-[[(tetrahydro-2H-pyran-4-yl)methyl]amino]-1(2H)-pyrazinyl]-benzamide]	6.4
Cc1ccc(C(=O)NC2CC2)cc1-n1ccnc(NC(C)(C)c2ccccc2OC2CCNC2)c1=O (centres unmarked) [Example 216, N-Cyclopropyl-4-methyl-3-[3-[[1-methyl-1-[2-(3-pyrrolidinyloxy)phenyl]ethyl]amino]-2-oxo-1(2H)-pyrazinyl]-benzamide]	9.4
Cc1ccc(CNc2nccn(-c3cc(C(=O)NC4CC4)ccc3C)c2=O)cc1 [Example 42, N-Cyclopropyl-4-methyl-3-[3-[[(4-methylphenyl)methyl]amino]-2-oxo-1(2H)-pyrazinyl]-benzamide]	6.4
4-Methyl-3-[3-[[[4-(4-methyl-1-piperazinyl)phenyl]methyl]amino]-2-oxo-1(2H)-pyrazinyl]-N-(1-methylpropyl)-benzamide [Example 14]	6
COC[C@@H]1CCCN1C[C@H](C)[C@@H](Nc1nccn(-c2cc(C(=O)NC3CC3)ccc2C)c1=O)c1ccccc1 [Example 149, N-Cyclopropyl-3-[3-[[(1R,2S)-3-[(2S)-2-(methoxymethyl)-1-pyrrolidinyl]-2-methyl-1-phenylpropyl]amino]-2-oxo-1(2H)-pyrazinyl]-4-methyl-benzamide]	8.9
Cc1ccc(C(=O)NC2CC2)cc1-n1ccnc(N[C@H]2C[C@@H]2c2ccccc2)c1=O [Example 47, N-Cyclopropyl-4-methyl-3-[2-oxo-3-[[(1S,2R)-2-phenylcyclopropyl]amino]-1(2H)-pyrazinyl]-benzamide]	7.2
CCN(CC)C[C@H](C)[C@@H](Nc1nccn(-c2cc(C(=O)NC3CC3)ccc2C)c1=O)c1ccccc1 [Example 146, N-cyclopropyl-3-[3-[[(1R,2S)-3-(diethylamino)-2-methyl-1-phenylpropyl]amino]-2-oxo-1(2H)-pyrazinyl]-4-methyl-benzamide]	8.9
Cc1cc(C)cc(CNc2nccn(-c3cc(C(=O)NC4CC4)ccc3C)c2=O)c1 [Example 95, N-Cyclopropyl-3-[3-[[(3,5-dimethylphenyl)methyl]amino]-2-oxo-1(2H)-pyrazinyl]-4-methyl-benzamide]	7.7
Cc1ccc(C(=O)NC2CC2)cc1-n1ccnc(NCc2cccc(C)c2C)c1=O [Example 92, N-Cyclopropyl-3-[3-[[(2,3-dimethylphenyl)methyl]amino]-2-oxo-1(2H)-pyrazinyl]-4-methyl-benzamide]	7.6

Further lines, results first:

pIC50	Compound
9.2	Cc1ccc(C(=O)NC2CC2)cc1-n1ccnc(NC(C)(C)c2ccccc2OCCN2CCN(C)CC2)c1=O [Example 202, N-Cyclopropyl-4-methyl-3-[3-[[1-methyl-1-[2-[2-(4-methyl-1-piperazinyl)ethoxy]phenyl]ethyl]amino]-2-oxo-1(2H)-pyrazinyl]-benzamide]
10	Cc1ccc(C(=O)NC2CC2)cc1-n1ccnc(NC2(c3ccccc3OCCN3CC[C@@H](O)C3)CC2)c1=O [Example 236, N-Cyclopropyl-3-[3-[[1-[2-[2-[(3R)-3-hydroxy-1-pyrrolidinyl]ethoxy]phenyl]cyclopropyl]amino]-2-oxo-1(2H)-pyrazinyl]-4-methyl-benzamide]
10.2	CCNCCOc1ccccc1C1(Nc2nccn(-c3cc(C(=O)NC4CC4)cc(F)c3C)c2=O)CC1 [Example 262, N-Cyclopropyl-3-[3-[[1-[2-[2-(ethylamino)ethoxy]phenyl]cyclopropyl]amino]-2-oxo-1(2H)-pyrazinyl]-5-fluoro-4-methyl-benzamide]
9.1	Cc1ccc(C(=O)NC2CC2)cc1-n1ccnc(NC(C)(C)c2ccccc2OCCCN2CCN(C)CC2)c1=O [Example 208, N-Cyclopropyl-4-methyl-3-[3-[[1-methyl-1-[2-[3-(4-methyl-1-piperazinyl)propoxy]phenyl]ethyl]amino]-2-oxo-1(2H)-pyrazinyl]-benzamide]
10	CNCCOc1ccccc1C1(Nc2nccn(-c3cc(C(=O)NC4CC4)ccc3C)c2=O)CCC1 [Example 268, N-Cyclopropyl-4-methyl-3-[3-[[1-[2-[2-(methylamino)ethoxy]phenyl]cyclobutyl]amino]-2-oxo-1(2H)-pyrazinyl]-benzamide]
10	Cc1ccc(C(=O)NC2CC2)cc1-n1ccnc(NC2(c3ccccc3OCCNC[C@H](C)O)CC2)c1=O [Example 230, N-Cyclopropyl-3-[3-[[1-[2-[2-[[(2S)-2-hydroxypropyl]amino]ethoxy]phenyl]cyclopropyl]amino]-2-oxo-1(2H)-pyrazinyl]-4-methyl-benzamide]
9.9	Cc1ccc(C(=O)NC2CC2)cc1-n1ccnc(NC2(c3ccccc3OCCNCCO)CCC2)c1=O [Example 270, N-Cyclopropyl-3-[3-[[1-[2-[2-[(2-hydroxyethyl)amino]ethoxy]phenyl]cyclobutyl]amino]-2-oxo-1(2H)-pyrazinyl]-4-methyl-benzamide]
9.4	Cc1ccc(C(=O)NC2CC2)cc1-n1ccnc(NC2(c3ccccc3OCCN3CCc4c(ncn4C)C3)CC2)c1=O [Example 297, N-Cyclopropyl-4-methyl-3-{3-[(1-{2-[2-(1-methyl-1,4,6,7-tetrahydro-5H-imidazo[4,5-c]pyridin-5-yl)ethoxy]phenyl}cyclopropyl)amino]-2-oxopyrazin-1(2H)-yl}benzamide]
